Data: ChEMBL document CHEMBL1201862, “PubChem BioAssay data set” (2004)
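Five compound concentrations were applied to cells in 96-well plates for 48 hours; endpoints were derived by simple linear interpolation of the resulting dose-response curve. GI50 is the concentration that inhibits growth by half.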 Active and inactive are the calls of the source. No stated cut-off is given here; in the data, active = GI50 up to about 1.1 µM and inactive = higher.

Experiments:
Test in all cases: DTP human tumour cell line panel, 48 h
IGROV-1 = tested on: IGROV-1
HCC 2998 = tested on: HCC 2998
SK-MEL-2 = tested on: SK-MEL-2
MDA-MB-435 = tested on: MDA-MB-435
HOP-62 = tested on: HOP-62
CAKI-1 = tested on: CAKI-1
SF-295 = tested on: SF-295
RPMI-8226 = tested on: RPMI-8226
OVCAR-4 = tested on: OVCAR-4
MOLT-4 = tested on: MOLT-4
RXF 393 = tested on: RXF 393
CCRF-CEM = tested on: CCRF-CEM
T47D = tested on: T47D
SK-OV-3 = tested on: SK-OV-3
NCI-H23 = tested on: NCI-H23
U-251 = tested on: U-251
NCI-H522 = tested on: NCI-H522
Malme-3M = tested on: Malme-3M
DU-145 = tested on: DU-145
UACC-257 = tested on: UACC-257

| SMILES | GI50 (IGROV-1) | GI50 (HCC 2998) | GI50 (SK-MEL-2) | GI50 (MDA-MB-435) | GI50 (HOP-62) | GI50 (CAKI-1) | GI50 (SF-295) | GI50 (RPMI-8226) | GI50 (OVCAR-4) | GI50 (MOLT-4) | GI50 (RXF 393) | GI50 (CCRF-CEM) | GI50 (T47D) | GI50 (SK-OV-3) | GI50 (NCI-H23) | GI50 (U-251) | GI50 (NCI-H522) | GI50 (Malme-3M) | GI50 (DU-145) | GI50 (UACC-257) |
| --- | --- | --- | --- | --- | --- | --- | --- | --- | --- | --- | --- | --- | --- | --- | --- | --- | --- | --- | --- | --- |
| CC(=O)O[C@H]1C(=O)[C@@]2(C)[C@H]([C@H](OC(=O)c3ccccc3)[C@]3(O)C[C@H](OC(=O)[C@H](O)[C@@H](NC(=O)c4ccccc4)C4CCCCC4)C(C)=C1C3(C)C)[C@]1(OC(C)=O)CO[C@@H]1C[C@@H]2O | < 0.01 µM (active) | < 0.01 µM (active) | 17.3 µM (inactive) | < 0.01 µM (active) | < 0.01 µM (active) | 0.409 µM (active) | < 0.01 µM (active) | < 0.01 µM (active) | 0.0227 µM (active) | < 0.01 µM (active) | < 0.01 µM (active) | < 0.01 µM (active) | < 0.01 µM (active) | < 0.01 µM (active) | < 0.01 µM (active) | < 0.01 µM (active) | < 0.01 µM (active) | 23.6 µM (inactive) | – | – |
| CC1=C2c3ccccc3N(S(=O)(=O)c3ccccc3)[C@H]2[C@H](C(=O)N2C3CC4CC[C@@]3(CS2(=O)=O)C4(C)C)CC1 (some centres not stated) | 59.4 µM (inactive) | – | – | 56.5 µM (inactive) | 16.4 µM (inactive) | 11.2 µM (inactive) | 1.71 µM (inactive) | 0.334 µM (active) | 64 µM (inactive) | 6.38 µM (inactive) | 0.222 µM (active) | 35.3 µM (inactive) | 10.6 µM (inactive) | 22.1 µM (inactive) | 40.6 µM (inactive) | 6.59 µM (inactive) | 10.8 µM (inactive) | 28.9 µM (inactive) | > 100 µM (inactive) | 33.7 µM (inactive) |
| C#CC(O)/C=C/C(O)CCCC(O)CC#CC(O)C#CC(O)CCCC(O)/C=C/CCCCCC(=O)CCCCCCCCCCCCCC(O)C(O)C#CC(=O)O (configuration not stated) | 13.7 µM (inactive) | > 50 µM (inactive) | 15 µM (inactive) | > 50 µM (inactive) | > 50 µM (inactive) | > 50 µM (inactive) | > 50 µM (inactive) | 26.5 µM (inactive) | 9.02 µM (inactive) | 14 µM (inactive) | – | 14.3 µM (inactive) | 10.9 µM (inactive) | > 50 µM (inactive) | > 50 µM (inactive) | > 50 µM (inactive) | 8.89 µM (inactive) | > 50 µM (inactive) | > 50 µM (inactive) | > 50 µM (inactive) |
| COC(C/C(=C/CO[Si](C(C)C)(C(C)C)C(C)C)C(=O)N(COCC[Si](C)(C)C)c1ccccc1I)OC | 0.0247 µM (active) | 43.9 µM (inactive) | 14.9 µM (inactive) | 5.53 µM (inactive) | 50.9 µM (inactive) | > 100 µM (inactive) | 4.58 µM (inactive) | > 100 µM (inactive) | 42.2 µM (inactive) | 16.2 µM (inactive) | – | 22.7 µM (inactive) | 32.6 µM (inactive) | > 100 µM (inactive) | 17.3 µM (inactive) | 22.8 µM (inactive) | – | – | > 100 µM (inactive) | 20 µM (inactive) |
| O=C1c2cscc2C(=O)C1(O)O | > 100 µM (inactive) | – | > 100 µM (inactive) | 32.6 µM (inactive) | > 100 µM (inactive) | 30.8 µM (inactive) | > 100 µM (inactive) | 45 µM (inactive) | 25.6 µM (inactive) | 22.5 µM (inactive) | – | 23.7 µM (inactive) | 18.6 µM (inactive) | > 100 µM (inactive) | 22.1 µM (inactive) | > 100 µM (inactive) | 18.7 µM (inactive) | 23.4 µM (inactive) | > 100 µM (inactive) | 24.9 µM (inactive) |
| Cc1ccc(S(=O)(=O)NCCCCC(N)C(=O)O)cc1 (configuration not stated) | > 100 µM (inactive) | – | – | > 100 µM (inactive) | > 100 µM (inactive) | > 100 µM (inactive) | > 100 µM (inactive) | > 100 µM (inactive) | > 100 µM (inactive) | > 100 µM (inactive) | > 100 µM (inactive) | > 100 µM (inactive) | > 100 µM (inactive) | > 100 µM (inactive) | > 100 µM (inactive) | > 100 µM (inactive) | > 100 µM (inactive) | > 100 µM (inactive) | > 100 µM (inactive) | > 100 µM (inactive) |
| Cc1nc2c(N3CCCC3)nc(N3CCNCC3)nc2nc1NCc1ccccc1 | 3.95 µM (inactive) | 1.53 µM (inactive) | 4.98 µM (inactive) | 2.24 µM (inactive) | 2.94 µM (inactive) | 3.01 µM (inactive) | 2.04 µM (inactive) | 2.11 µM (inactive) | 7.73 µM (inactive) | 2.52 µM (inactive) | – | 2.4 µM (inactive) | 1.73 µM (inactive) | 7.69 µM (inactive) | 8.85 µM (inactive) | 3.2 µM (inactive) | 1.65 µM (inactive) | 2.04 µM (inactive) | 6.52 µM (inactive) | 1.94 µM (inactive) |
